From patent US12404304B1, “Telomerase reverse transcriptase (TERT) expression enhancing compounds and methods for using the same” (Sierra Sciences, LLC, priority 2007, dated 2025)

Tests used:
[1] = tested on: viable cells in culture; test: Cell viability assay (CellTiter-Glo Luminescent Cell Viability Assay, ATP quantitation, percent of vehicle control)
[2] = tested on: human TERT expression (hTERT mRNA); test: Quantitative real-time RT-PCR of hTERT mRNA expression (Ct, transcripts) in compound-treated cells; assay type: cell-based; conditions: quantitative real-time RT-PCR
Description: Telomerase is a ribonucleoprotein complex composed of the catalytic protein subunit (human telomerase reverse transcriptase or hTERT) and the RNA template. hTERT expression level can be measured by PCR.
Briefly, amplification of the target sequence is monitored per PCR cycle by detecting the fluorescence signal emitted by an internal probe that is degraded by the 5′ nuclease activity of the Taq polymerase. The emission signal accumulates in each sample, and the Ct required to reach a given fluorescence threshold is determined (Ct stands for Cycle Threshold and is a measure of the number of PCR cycles that are required to amplify a target—thus, a lower Ct score means that there is more abundant hTERT mRNA). Thus, the Ct value of a sample inversely correlates to the quantity of the starting cDNA which correlates to the number of mRNA transcripts. Using the cDNA of known quantity, a standard curve can be generated and used to determine the starting amount of mRNA transcripts based on the […] of each sample.
Quantitative real-time PCR can be done on cDNA from test compound-treated and nontreated cells by use of a ABI Prism 7900 Sequence Detection System (PE Applied Biosystems, Foster City, CA) following the Assays-on-Demand protocol (PE Applied Biosystems, Foster City, CA). Quantitative data can be analyzed using the Sequence Detection System software version 2.1 (PE Applied Biosystems).
The following compounds were tested in assays designed to identify compounds that enhance human TERT expression.

CC1=NN(c2ccccc2)C(=O)C1C(=O)c1ccc(Br)cc1 (stereo not shown) [compound 1115]
Average Cell Viability after 24 Hours (% DMSO) [1]: 81.68 % DMSO
Average Number of hTERT Transcripts [2]: 59.18

Oc1cc(CSc2ccc(Cl)cc2)nn1-c1ccccc1 [compound 1116]
Average Cell Viability after 24 Hours (% DMSO) [1]: 75.26 % DMSO
Average Number of hTERT Transcripts [2]: 102.70

Cc1c2c(=O)n(-c3nc4ccccc4s3)nc-2cc(O)n1Cc1ccccc1 [compound 1117]
Average Cell Viability after 24 Hours (% DMSO) [1]: 84.16 % DMSO
Average Number of hTERT Transcripts [2]: 57.88

Cc1nnc(SCC2=NN(c3nc4ccccc4[nH]3)C(=O)C2)s1 [compound 1118]
Average Cell Viability after 24 Hours (% DMSO) [1]: 73.41 % DMSO
Average Number of hTERT Transcripts [2]: 54.45

O=C1CC(CSc2nnnn2-c2ccccc2)=NN1c1nc2ccccc2[nH]1 [compound 1119]
Average Cell Viability after 24 Hours (% DMSO) [1]: 62.38 % DMSO
Average Number of hTERT Transcripts [2]: 125.15

Cc1ccc(-c2cc(O)n(-c3nc4ccccc4[nH]3)n2)cc1 [compound 1120]
Average Cell Viability after 24 Hours (% DMSO) [1]: 52.50 % DMSO
Average Number of hTERT Transcripts [2]: 118.82

Oc1cc(-c2ccc(Cl)cc2)nn1-c1nc2ccccc2[nH]1 [compound 1121]
Average Cell Viability after 24 Hours (% DMSO) [1]: 52.77 % DMSO
Average Number of hTERT Transcripts [2]: 119.73

CCCC1=NN(c2ccc(Cl)cc2)C(=O)C1 [compound 1122]
Average Cell Viability after 24 Hours (% DMSO) [1]: 66.57 % DMSO
Average Number of hTERT Transcripts [2]: 13.40

Cc1csc(-n2nc(C)c(CC(=O)Nc3ccc(Br)cc3)c2O)n1 [compound 1123]
Average Cell Viability after 24 Hours (% DMSO) [1]: 79.37 % DMSO
Average Number of hTERT Transcripts [2]: 58.23

CCCCNC(=O)Cc1c(C)nn(-c2nc(C)c(C)s2)c1O [compound 1124]
Average Cell Viability after 24 Hours (% DMSO) [1]: 87.04 % DMSO
Average Number of hTERT Transcripts [2]: 34.96

Cc1nc(-n2nc(C)c(CC(=O)N3CCN(c4ccc(F)cc4)CC3)c2O)sc1C [compound 1125]
Average Cell Viability after 24 Hours (% DMSO) [1]: 78.39 % DMSO
Average Number of hTERT Transcripts [2]: 82.95

Cc1nc(-n2nc(C)c(CC(=O)N3CCCCC3)c2O)sc1C [compound 1126]
Average Cell Viability after 24 Hours (% DMSO) [1]: 95.13 % DMSO
Average Number of hTERT Transcripts [2]: 75.66

CCOC(=O)N1CCN(C(=O)Cc2c(C)nn(-c3nc(C)c(C)s3)c2O)CC1 [compound 1127]
Average Cell Viability after 24 Hours (% DMSO) [1]: 92.15 % DMSO
Average Number of hTERT Transcripts [2]: 20.86

Cc1nc(-n2nc(C)c(CC(=O)Nc3ccc(F)cc3)c2O)sc1C [compound 1128]
Average Cell Viability after 24 Hours (% DMSO) [1]: 86.93 % DMSO
Average Number of hTERT Transcripts [2]: 42.25

CCCCc1c(C)nn(-c2nc(C)c(C(=O)OCC)s2)c1O [compound 1129]
Average Cell Viability after 24 Hours (% DMSO) [1]: 68.77 % DMSO
Average Number of hTERT Transcripts [2]: 54.36

CCOC(=O)c1sc(-n2nc(C)c(Cc3ccc(C)cc3)c2O)nc1C [compound 1130]
Average Cell Viability after 24 Hours (% DMSO) [1]: 70.45 % DMSO
Average Number of hTERT Transcripts [2]: 31.93

CCOC(=O)c1sc(-n2nc(C)c(Cc3ccc(Cl)cc3)c2O)nc1C [compound 1131]
Average Cell Viability after 24 Hours (% DMSO) [1]: 75.57 % DMSO
Average Number of hTERT Transcripts [2]: 95.19

Cc1csc(-n2nc(C)c(CCC(=O)Nc3ccc(F)cc3)c2O)n1 [compound 1132]
Average Cell Viability after 24 Hours (% DMSO) [1]: 91.26 % DMSO
Average Number of hTERT Transcripts [2]: 81.62

Cc1csc(-n2nc(C)c(CCC(=O)Nc3ccc(Br)cc3)c2O)n1 [compound 1133]
Average Cell Viability after 24 Hours (% DMSO) [1]: 77.29 % DMSO
Average Number of hTERT Transcripts [2]: 108.84

Cc1csc(-n2nc(C)c(CCC(=O)Nc3ccc(Cl)cc3)c2O)n1 [compound 1134]
Average Cell Viability after 24 Hours (% DMSO) [1]: 87.25 % DMSO
Average Number of hTERT Transcripts [2]: 127.97

CCCCNC(=O)CCc1c(C)nn(-c2nc(C)c(C)s2)c1O [compound 1135]
Average Cell Viability after 24 Hours (% DMSO) [1]: 88.69 % DMSO
Average Number of hTERT Transcripts [2]: 23.88

Cc1nc(-n2nc(C)c(CCC(=O)N3CCN(c4ccc(F)cc4)CC3)c2O)sc1C [compound 1136]
Average Cell Viability after 24 Hours (% DMSO) [1]: 90.51 % DMSO
Average Number of hTERT Transcripts [2]: 135.61

Cc1nc(-n2nc(C)c(CCC(=O)N3CCCCC3)c2O)sc1C [compound 1137]
Average Cell Viability after 24 Hours (% DMSO) [1]: 81.10 % DMSO
Average Number of hTERT Transcripts [2]: 81.62

Cc1nc(-n2nc(C)c(CCC(=O)Nc3ccc(F)cc3)c2O)sc1C [compound 1138]
Average Cell Viability after 24 Hours (% DMSO) [1]: 87.23 % DMSO
Average Number of hTERT Transcripts [2]: 162.66

Cc1nc(-n2nc(C)c(CCC(=O)Nc3ccc(Br)cc3)c2O)sc1C [compound 1139]
Average Cell Viability after 24 Hours (% DMSO) [1]: 74.45 % DMSO
Average Number of hTERT Transcripts [2]: 19.61

Cc1nnc(SCc2cc(O)n(-c3nc4ccccc4s3)n2)s1 [compound 1141]
Average Cell Viability after 24 Hours (% DMSO) [1]: 71.38 % DMSO
Average Number of hTERT Transcripts [2]: 19.39

Cc1ccc(Cc2c(C)nn(-c3nc4ccccc4[nH]3)c2O)cc1 [compound 1143]
Average Cell Viability after 24 Hours (% DMSO) [1]: 35.07 % DMSO
Average Number of hTERT Transcripts [2]: 22.65

Cc1nn(-c2nc3ccccc3[nH]2)c(O)c1Cc1ccccc1Cl [compound 1144]
Average Cell Viability after 24 Hours (% DMSO) [1]: 40.68 % DMSO
Average Number of hTERT Transcripts [2]: 54.47

Cc1nn2c(=O)c(Cc3ccccc3)c(C)[nH]c2c1-c1ccc(Cl)cc1 [compound 1145]
Average Cell Viability after 24 Hours (% DMSO) [1]: 63.03 % DMSO
Average Number of hTERT Transcripts [2]: 76.07

Cc1[nH]c2c(-c3ccc(Cl)cc3)cnn2c(=O)c1Cc1ccccc1 [compound 1146]
Average Cell Viability after 24 Hours (% DMSO) [1]: 63.23 % DMSO
Average Number of hTERT Transcripts [2]: 57.84

Cc1[nH]c2c(-c3cccc(Br)c3)cnn2c(=O)c1Cc1ccccc1 [compound 1147]
Average Cell Viability after 24 Hours (% DMSO) [1]: 61.72 % DMSO
Average Number of hTERT Transcripts [2]: 29.83

O=c1cc(Cc2ccccc2)[nH]c2c(-c3ccccc3)c(-c3ccccc3)nn12 [compound 1148]
Average Cell Viability after 24 Hours (% DMSO) [1]: 88.31 % DMSO
Average Number of hTERT Transcripts [2]: 108.34

O=c1cc(Cc2ccccc2)[nH]c2c(-c3ccc(Cl)cc3)cnn12 [compound 1149]
Average Cell Viability after 24 Hours (% DMSO) [1]: 87.19 % DMSO
Average Number of hTERT Transcripts [2]: 91.14

COc1ccc(-c2cc(=O)n3nc(C)c(-c4ccccc4)c3[nH]2)cc1 [compound 1150]
Average Cell Viability after 24 Hours (% DMSO) [1]: 86.82 % DMSO
Average Number of hTERT Transcripts [2]: 80.37

Cc1ccc(-c2cc(=O)n3nc(C)c(-c4ccccc4)c3[nH]2)cc1 [compound 1151]
Average Cell Viability after 24 Hours (% DMSO) [1]: 77.04 % DMSO
Average Number of hTERT Transcripts [2]: 164.58

Cc1nn2c(=O)cc(-c3ccccc3)[nH]c2c1-c1ccc(F)cc1 [compound 1152]
Average Cell Viability after 24 Hours (% DMSO) [1]: 73.68 % DMSO
Average Number of hTERT Transcripts [2]: 64.86

Cc1nn2c(=O)c(Cl)c(C)[nH]c2c1-c1ccccc1 [compound 1153]
Average Cell Viability after 24 Hours (% DMSO) [1]: 88.39 % DMSO
Average Number of hTERT Transcripts [2]: 5.84

COc1ccc(-c2cc(=O)n3nc(C)c(-c4ccc(F)cc4)c3[nH]2)cc1 [compound 1154]
Average Cell Viability after 24 Hours (% DMSO) [1]: 69.15 % DMSO
Average Number of hTERT Transcripts [2]: 48.37

CCCc1c(C)[nH]c2c(-c3ccc(Cl)cc3)c(C)nn2c1=O [compound 1155]
Average Cell Viability after 24 Hours (% DMSO) [1]: 80.19 % DMSO
Average Number of hTERT Transcripts [2]: 15.30

Cc1nn2c(=O)cc(-c3ccc(Cl)cc3)[nH]c2c1-c1ccccc1 [compound 1156]
Average Cell Viability after 24 Hours (% DMSO) [1]: 61.07 % DMSO
Average Number of hTERT Transcripts [2]: 45.97

Cc1cc(=O)n2ncc(-c3ccc(Cl)cc3)c2[nH]1 [compound 1157]
Average Cell Viability after 24 Hours (% DMSO) [1]: 71.08 % DMSO
Average Number of hTERT Transcripts [2]: 16.13

CCCc1cc(=O)n2ncc(-c3ccc(Cl)cc3)c2[nH]1 [compound 1158]
Average Cell Viability after 24 Hours (% DMSO) [1]: 62.57 % DMSO
Average Number of hTERT Transcripts [2]: 71.35

O=c1c2c([nH]c3c(-c4ccc(Cl)cc4)cnn13)CCCC2 [compound 1159]
Average Cell Viability after 24 Hours (% DMSO) [1]: 55.24 % DMSO
Average Number of hTERT Transcripts [2]: 5.22

O=c1c2c([nH]c3c(-c4ccc(Cl)cc4)cnn13)CCC2 [compound 1160]
Average Cell Viability after 24 Hours (% DMSO) [1]: 59.19 % DMSO
Average Number of hTERT Transcripts [2]: 54.13

O=c1c(-c2ccccc2)c[nH]c2c(-c3ccccc3)cnn12 [compound 1161]
Average Cell Viability after 24 Hours (% DMSO) [1]: 62.93 % DMSO
Average Number of hTERT Transcripts [2]: 139.82

Cc1nn2c(=O)cc(-c3ccccc3)[nH]c2c1-c1ccccc1 [compound 1162]
Average Cell Viability after 24 Hours (% DMSO) [1]: 65.07 % DMSO
Average Number of hTERT Transcripts [2]: 113.08

Cc1nn2c(=O)cc(CSc3nnnn3-c3ccccc3)[nH]c2c1-c1ccc(Cl)cc1 [compound 1163]
Average Cell Viability after 24 Hours (% DMSO) [1]: 70.88 % DMSO
Average Number of hTERT Transcripts [2]: 68.40

Cc1nn2c(=O)cc(-c3ccccc3Cl)[nH]c2c1-c1ccccc1 [compound 1164]
Average Cell Viability after 24 Hours (% DMSO) [1]: 71.68 % DMSO
Average Number of hTERT Transcripts [2]: 56.66

Cc1nn2c(=O)c(Cc3ccc(Br)cc3)c(C)[nH]c2c1-c1ccccc1 [compound 1165]
Average Cell Viability after 24 Hours (% DMSO) [1]: 55.73 % DMSO
Average Number of hTERT Transcripts [2]: 132.12

Cc1nn2c(=O)c(Cc3cccc(Cl)c3)c(C)[nH]c2c1-c1ccccc1 [compound 1166]
Average Cell Viability after 24 Hours (% DMSO) [1]: 77.99 % DMSO
Average Number of hTERT Transcripts [2]: 152.34
